Experimental data published in ChEMBL document CHEMBL1151433, “National and regional assessment of antimicrobial resistance among community-acquired respiratory tract pathogens identified in a 2005-2006 U.S. Faropenem surveillance study” (2007).
Values after ≈ are worked out from the molar mass of the structure shown.

Assays:
Haemophilus influenzae [1] = assay: Antibacterial activity against beta lactamase-positive Haemophilus influenzae […] isolated from respiratory tract infected patients assessed as susceptible isolates after 20 to 24 hrs by broth microdilution method; format: functional, ATCC 49247
Haemophilus influenzae [2] = assay: Antibacterial activity against beta lactamase-negative Haemophilus influenzae […] isolated from respiratory tract infected patients after 20 to 24 hrs by broth microdilution method; format: functional; details: ATCC 49247
Haemophilus influenzae [3] = assay: Antibacterial activity against beta lactamase-negative Haemophilus influenzae […] isolated from respiratory tract infected patients assessed as susceptible isolates after 20 to 24 hrs by broth microdilution method; format: functional
Streptococcus pneumoniae [4] = assay: Antibacterial activity against penicillin-intermediate Streptococcus pneumoniae ATCC 49619 isolated from respiratory tract infected patients assessed as resistant isolates after 20 to 24 hrs by broth microdilution method; format: functional
Haemophilus influenzae [5] = assay: Antibacterial activity against beta lactamase-negative Haemophilus influenzae […] isolated from respiratory tract infected patients assessed as resistant isolates after 20 to 24 hrs by broth microdilution method; format: functional, ATCC 49247
Streptococcus pneumoniae [6] = assay: Antibacterial activity against penicillin-susceptible Streptococcus pneumoniae ATCC 49619 isolated from respiratory tract infected patients assessed as resistant isolates after 20 to 24 hrs by broth microdilution method; format: functional
Streptococcus pneumoniae [7] = assay: Antibacterial activity against penicillin-susceptible Streptococcus pneumoniae ATCC 49619 isolated from respiratory tract infected patients after 20 to 24 hrs by broth microdilution method; format: functional
Streptococcus pneumoniae [8] = assay: Antibacterial activity against penicillin-resistant Streptococcus pneumoniae ATCC 49619 isolated from respiratory tract infected patients assessed as resistant isolates after 20 to 24 hrs by broth microdilution method; format: functional
Haemophilus influenzae [9] = assay: Antibacterial activity against beta lactamase-positive Haemophilus influenzae […] isolated from respiratory tract infected patients after 20 to 24 hrs by broth microdilution method; format: functional; details: ATCC 49247
Streptococcus pneumoniae [10] = assay: Antibacterial activity against penicillin-intermediate Streptococcus pneumoniae ATCC 49619 isolated from respiratory tract infected patients assessed as susceptible isolates after 20 to 24 hrs by broth microdilution method; format: functional
Streptococcus pneumoniae [11] = assay: Antibacterial activity against penicillin-intermediate Streptococcus pneumoniae ATCC 49619 isolated from respiratory tract infected patients after 20 to 24 hrs by broth microdilution method; format: functional
Streptococcus pneumoniae [12] = assay: Antibacterial activity against penicillin-resistant Streptococcus pneumoniae ATCC 49619 isolated from respiratory tract infected patients assessed as susceptible isolates after 20 to 24 hrs by broth microdilution method; format: functional
Streptococcus pneumoniae [13] = assay: Antibacterial activity against Streptococcus pneumoniae ATCC 49619 isolated from respiratory tract infected patients assessed as susceptible isolates after 20 to 24 hrs by broth microdilution method; format: functional
Haemophilus influenzae [14] = assay: Antibacterial activity against beta lactamase-positive Haemophilus influenzae […] isolated from respiratory tract infected patients assessed as resistant isolates after 20 to 24 hrs by broth microdilution method; format: functional, ATCC 49247
Haemophilus influenzae [15] = assay: Antibacterial activity against Haemophilus influenzae […] isolated from respiratory tract infected patients after 20 to 24 hrs by broth microdilution method; format: functional; details: ATCC 49247
Streptococcus pneumoniae [16] = assay: Antibacterial activity against penicillin-resistant Streptococcus pneumoniae ATCC 49619 isolated from respiratory tract infected patients after 20 to 24 hrs by broth microdilution method; format: functional
Haemophilus influenzae [17] = assay: Antibacterial activity against Haemophilus influenzae […] isolated from respiratory tract infected patients assessed as resistant isolates after 20 to 24 hrs by broth microdilution method; format: functional, ATCC 49247
Streptococcus pneumoniae [18] = assay: Antibacterial activity against Streptococcus pneumoniae ATCC 49619 isolated from respiratory tract infected patients after 20 to 24 hrs by broth microdilution method; format: functional
Streptococcus pneumoniae [19] = assay: Antibacterial activity against penicillin-susceptible Streptococcus pneumoniae ATCC 49619 isolated from respiratory tract infected patients assessed as susceptible isolates after 20 to 24 hrs by broth microdilution method; format: functional
Streptococcus pneumoniae [20] = assay: Antibacterial activity against Streptococcus pneumoniae ATCC 49619 isolated from respiratory tract infected patients assessed as resistant isolates after 20 to 24 hrs by broth microdilution method; format: functional
Haemophilus influenzae [21] = assay: Antibacterial activity against Haemophilus influenzae […] isolated from respiratory tract infected patients assessed as susceptible isolates after 20 to 24 hrs by broth microdilution method; format: functional, ATCC 49247
Moraxella catarrhalis = assay: Antibacterial activity against Moraxella catarrhalis isolated from respiratory tract infected patients after 20 to 24 hrs by broth microdilution method; format: functional

Structure (SMILES) | Activity (Haemophilus influenzae [1]) [%] | MIC50 (Haemophilus influenzae [2]) [µg/mL] | MIC90 (Haemophilus influenzae [2]) [µg/mL] | Activity (Haemophilus influenzae [3]) [%] | Activity (Streptococcus pneumoniae [4]) [%] | Activity (Haemophilus influenzae [5]) [%] | Activity (Streptococcus pneumoniae [6]) [%] | MIC50 (Streptococcus pneumoniae [7]) [µg/mL] | MIC90 (Streptococcus pneumoniae [7]) [µg/mL] | Activity (Streptococcus pneumoniae [8]) [%] | MIC50 (Haemophilus influenzae [9]) [µg/mL] | MIC90 (Haemophilus influenzae [9]) [µg/mL] | Activity (Streptococcus pneumoniae [10]) [%] | MIC50 (Streptococcus pneumoniae [11]) [µg/mL] | MIC90 (Streptococcus pneumoniae [11]) [µg/mL] | Activity (Streptococcus pneumoniae [12]) [%] | Activity (Streptococcus pneumoniae [13]) [%] | Activity (Haemophilus influenzae [14]) [%] | MIC50 (Haemophilus influenzae [15]) [µg/mL] | MIC90 (Haemophilus influenzae [15]) [µg/mL] | further results
CO/N=C(\C(=O)N[C@@H]1C(=O)N2C(C(=O)O)=C(COC(N)=O)CS[C@H]12)c1ccco1 [CEFUROXIME] | 96.3 | 1 (≈ 2.36 µM) | 2 (≈ 4.71 µM) | 98 | 12.7 | 0.2 | 0 | ≤ 0.5 | ≤ 0.5 | 99.2 | 1 (≈ 2.36 µM) | 2 (≈ 4.71 µM) | 74 | ≤ 0.5 | 4 (≈ 9.43 µM) | 0 | 78.2 | 0.7 | 1 (≈ 2.36 µM) | 2 (≈ 4.71 µM) | MIC50 (Streptococcus pneumoniae [16]): 8 µg/mL (≈ 18.9 µM); MIC90 (Streptococcus pneumoniae [16]): 16 µg/mL (≈ 37.7 µM); Activity (Haemophilus influenzae [17]): 0.3%; MIC50 (Streptococcus pneumoniae [18]): ≤ 0.5 µg/mL; MIC90 (Streptococcus pneumoniae [18]): 8 µg/mL (≈ 18.9 µM); Activity (Streptococcus pneumoniae [19]): 99.9%; Activity (Streptococcus pneumoniae [20]): 18.7%; Activity (Haemophilus influenzae [21]): 97.6%; MIC50 (Moraxella catarrhalis): 1 µg/mL (≈ 2.36 µM); MIC90 (Moraxella catarrhalis): 2 µg/mL (≈ 4.71 µM)
CC[C@H]1OC(=O)[C@H](C)C(=O)[C@H](C)[C@@H](O[C@@H]2O[C@H](C)C[C@H](N(C)C)[C@H]2O)[C@](C)(OC)C[C@@H](C)C(=O)[C@H](C)[C@H]2N(CCCCn3cnc(-c4cccnc4)c3)C(=O)O[C@]12C [TELITHROMYCIN] | 97 | 2 (≈ 2.46 µM) | 4 (≈ 4.93 µM) | 96.1 | 0 | 0.7 | 0.1 | ≤ 0.12 | ≤ 0.12 | 0 | 2 (≈ 2.46 µM) | 4 (≈ 4.93 µM) | 100 | ≤ 0.12 | 0.5 (≈ 0.616 µM) | 97.2 | 99.4 | 0.8 | 2 (≈ 2.46 µM) | 4 (≈ 4.93 µM) | MIC50 (Streptococcus pneumoniae [16]): 0.5 µg/mL (≈ 0.616 µM); MIC90 (Streptococcus pneumoniae [16]): 1 µg/mL (≈ 1.23 µM); Activity (Haemophilus influenzae [17]): 0.7%; MIC50 (Streptococcus pneumoniae [18]): ≤ 0.12 µg/mL; MIC90 (Streptococcus pneumoniae [18]): 0.5 µg/mL (≈ 0.616 µM); Activity (Streptococcus pneumoniae [19]): 99.8%; Activity (Streptococcus pneumoniae [20]): 0.1%; Activity (Haemophilus influenzae [21]): 96.4%; MIC50 (Moraxella catarrhalis): ≤ 0.12 µg/mL; MIC90 (Moraxella catarrhalis): ≤ 0.12 µg/mL
